From publication PMC10714399, “Open Source Antibiotics: Simple Diarylimidazoles Are Potent against Methicillin-Resistant Staphylococcus aureus” (ACS Infectious Diseases, 2023)
≈ marks a conversion by molar mass, not a printed value. Where “and” joins values, the source holds several entries; their conditions need not be identical. Equal values may be shown once. Read-outs that look alike come from different tables or passages of the source.

Legend:
[1] = Human plasma protein binding (PPB); type: in vitro ADME; settings: human, plasma
Source text: (§1) To guide our initial SAR exploration work, we obtained liver microsomal intrinsic clearance data for 5 of the 18 compounds assayed by CO-ADD (Supporting Information - CDCO Report and Supporting Information - Biology). We then acquired intrinsic clearance (CLint), plasma protein binding (PPB), and solubility data on further compounds throughout the SAR campaign (Supporting Information - Biology, Tables S3 and S4).
(§2) Table S4. ADME and Pharmacokinetics: compounds only appearing in the Supplementary […]
(§3) MRSA Aqueous HLM CLint Rat Hep CLint
(§4) Cmpd MIC Solubility Human PPB (%) (µL/min/mg (µL/min/10x6 LogD7.4
(§5) (µg/mL) (µM) protein) cells)
(§6) ADME and toxicity for compounds were measured according to procedures outlined in the manuscript submitted in parallel to this one;2 other procedures were used for those compounds analysed by Monash University (in vitro ADME) or UCL (toxicity), both described in the main

[2] = system: Staphylococcus aureus NCTC 13373 (mecA-positive; methicillin-resistant); assay: In vitro antibacterial activity, MIC (UCL School of Pharmacy assay), MRSA; type: cell-based; settings: for MIC: Staphylococcus aureus
How it was run: (§7)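 Each organism was taken from overnight tryptone soya agar, suspended in PBS at A600 0.1, diluted 1:100 in isosensitest broth and added to serially diluted compound (32 to 0.03 μg/mL).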

[3] = Human liver microsome intrinsic clearance; type: in vitro ADME; settings: human liver microsomes, NEU
Source text: as §1, §2, §3, §4, §5, §6

Aqueous solubility = type: physicochemical; settings: thermodynamic from solid
Source text: To guide our initial SAR exploration work, we obtained liver microsomal intrinsic clearance data for 5 of the 18 compounds assayed by CO-ADD (Supporting Information - CDCO Report and Supporting Information - Biology). We then acquired intrinsic clearance (CLint), plasma protein binding (PPB), and solubility data on further compounds throughout the SAR campaign (Supporting Information - Biology, Tables S3 and S4). […] The more polar compounds (lower LogD) had reduced PPB and were more metabolically stable.
as §2, §3, §4, §5, §6

[4] = Rat hepatocyte intrinsic clearance; type: in vitro ADME; settings: rat hepatocytes, NEU
Source text: as §1, §2, §3, §4, §5, §6

[5] = system: Enterococcus faecalis ATCC 51299 (vanA-positive; vancomycin-resistant); assay: In vitro antibacterial activity, MIC (UCL), VRE; type: cell-based
Procedure: Staphylococcus aureus NCTC 13373 (mecA-positive; methicillin-resistant, NCTC 13373) was supplied by the National Collection of Type Cultures (NCTC), Public Health England, United Kingdom. Other organisms, S. aureus ATCC 25923 (methicillin-susceptible) and Enterococcus faecalis ATCC 51299 (vanA-positive; vancomycin-resistant), were obtained from the American Type Culture Collection (ATCC) via LGC Standards, UK. A suspension of each organism was prepared from an overnight plate culture (tryptone soya agar) in phosphate-buffered saline (PBS) and adjusted to an absorbance reading at 600 nm of 0.1, which is approximately equivalent to 1 × 10^8 colony-forming units (CFU) per mL. The cultures were further diluted 1:100 in isosensitest broth (Oxoid, United Kingdom) before 100 μL was used to inoculate each well of a 96-well plate that contained diluted samples of the OSA series. Compounds were evaluated over a 2-fold dilution range from 32 to 0.03 μg/mL. Stocks of the samples were prepared in 100% DMSO at […] before being diluted in isosenstitest broth. The highest concentration of DMSO present was 2%, which has been previously shown not to inhibit the growth of the microorganisms (data not shown). […] Vancomycin was used as a quality control compound.

[6] = system: MRC-5SV2 (human lung fibroblast cell line); assay: Toxicity against MRC-5SV2; type: cell-based
Procedure: as §6

[7] = system: PMM (primary mouse macrophages); assay: Toxicity against PMM; type: cell-based
Procedure: as §6

[8] = system: S. aureus ATCC 25923 (methicillin-susceptible); assay: In vitro antibacterial activity, MIC (UCL), MSSA; type: cell-based, Staphylococcus aureus; settings: for MIC: Staphylococcus aureus
How it was run: as §7

[9] = human plasma, NEU, read-out: Human PPB (NEU) (converted)
[10] = NEU, read-out: Aqueous Solubility (NEU)

SMILES | MRC5 TC50 [6] | MRSA MIC [2] | PMM TC50 [7] | MSSA MIC [8] | further results
c1ccc(-c2nc3n(c2-c2ccc4sc5ccccc5c4c2)CCC3)nc1 [OSA_000831] | – | – | – | – | fraction unbound [1, 9]: 0.0008; MIC ([2]; UCL, read-out: MRSA MIC (UCL)): 8 µg/mL (≈ 21.8 µM); HLM CLint (NEU) [3]: 42.6 uL/min/mg protein; solubility (Aqueous solubility; [10]): 3 µM (≈ 1.1 µg/mL); Rat Hep CLint (NEU) [4]: 151 uL/min/10x6 cells
Cc1nc2cc(-c3c(-c4ccccn4)nc4n3CCC4)ccc2s1 [OSA_000836] | – | – | – | – | fraction unbound [1, 9]: 0.098; MIC ([2]; UCL, read-out: MRSA MIC (UCL)): 32 µg/mL (≈ 96.3 µM); HLM CLint (NEU) [3]: 34.1 uL/min/mg protein; solubility (Aqueous solubility; [10]): 10 µM (≈ 3.32 µg/mL); Rat Hep CLint (NEU) [4]: 49.1 uL/min/10x6 cells
Fc1cccc(-c2c(-c3ccccn3)nc3n2CCC3)c1 [OSA_000872] | – | – | – | – | MIC ([5]; read-out: VRE MIC (UCL)): > 32 µg/mL; MRC5 TC50 ([6]; MRC5 cells): 7.2 µM; MIC ([2]; UCL, read-out: MRSA MIC (UCL)): > 32 µg/mL; PMM TC50 ([7]; PMM): 54.63 µM
[2H]C([2H])([2H])N(c1ccc(F)cc1)c1c(-c2ccccn2)nc2ccccn12 [OSA_001002] | – | – | – | – | MIC ([8]; read-out: MSSA MIC (UCL)): 16 µg/mL (≈ 49.8 µM); MIC ([2]; UCL, read-out: MRSA MIC (UCL)): 16 µg/mL (≈ 49.8 µM); solubility (Aqueous solubility; [10]): 116 µM (≈ 37.3 µg/mL)
COc1ccc(-c2nc3ccccn3c2Nc2ccc(F)cc2)nc1 [OSA_001022] | – | – | – | – | MIC ([8]; UCL assay, read-out: MSSA MIC (ug/mL) (UCL)): 8 µg/mL (≈ 23.9 µM); MIC ([2]; UCL assay, read-out: MRSA MIC (ug/mL) (UCL)): 8 µg/mL (≈ 23.9 µM); solubility (Aqueous solubility; NEU, read-out: Aqueous Solubility (uM) (NEU)): 3 µM (≈ 1 µg/mL)
COc1ccn2c(Nc3ccccc3F)c(-c3cnn(C)c3)nc2c1 [compound 855] | 21.6 µg/mL | > 32 µg/mL and 32 µg/mL | 21.6 µg/mL | – | VRE MIC [5]: > 32 µg/mL
COc1ccn2cc(-c3ccccn3)nc2c1 [compound 856] | 11.6 µg/mL | > 32 µg/mL and 32 µg/mL | 14.4 µg/mL | – | VRE MIC [5]: > 32 µg/mL
COc1ccn2c(-c3ccc(F)cc3)c(-c3ccccn3)nc2c1 [compound 858] | 1.2 µg/mL | 16 µg/mL | 2.6 µg/mL | – | VRE MIC [5]: > 32 µg/mL
COc1ccn2c(-c3ccccc3)c(-c3ccccn3)nc2c1 [compound 860] | 1.2 µg/mL | 8 µg/mL | 2.4 µg/mL | – | VRE MIC [5]: 32 µg/mL
Fc1cccc(-c2c(-c3ccccn3)nc3n2CCC3)c1 [compound 872] | 2.0 µg/mL | 32 µg/mL | 15.3 µg/mL | – | MIC ([5]; read-out: VRE MIC): > 32 µg/mL; MIC ([2]; read-out: MRSA MIC): > 32 µg/mL
Clc1ccc(-c2c(-c3ccccn3)nc3n2CCC3)cc1 [compound 875] | 1.6 µg/mL | – | 2.4 µg/mL | – | MIC ([5]; read-out: VRE MIC): 16 µg/mL (≈ 54.1 µM); MIC ([2]; read-out: MRSA MIC): 4 µg/mL (≈ 13.5 µM)
N#Cc1ccc(-c2c(-c3ccccn3)nc3n2CCC3)cc1 [compound 975] | 7.4 µg/mL | – | 18.3 µg/mL | – | MIC ([5]; read-out: VRE MIC): 16 µg/mL (≈ 55.9 µM); fraction unbound ([1]; read-out: Human PPB (converted)): 0.29; MIC ([2]; 16 h, read-out: MRSA MIC): 4 µg/mL (≈ 14 µM); MIC ([2]; read-out: MRSA MIC): 4 µg/mL (≈ 14 µM); solubility (Aqueous solubility; read-out: Aqueous Solubility): 38 µM (≈ 10.9 µg/mL)
Cc1ccc2nc(-c3ccccc3)c(CNc3ccc(F)cc3)n2c1 [compound 1027] | 21.2 µg/mL | > 32 µg/mL and 32 µg/mL | 21.2 µg/mL | > 32 µg/mL | –
Cc1ccc2nc(-c3ccccc3)c(CNc3cccc(C(F)(F)F)c3)n2c1 [compound 1028] | 24.4 µg/mL | > 32 µg/mL and 32 µg/mL | 24.4 µg/mL | > 32 µg/mL | –
CCCCN(Cc1c(-c2ccccc2)nc2ccc(C)cn12)c1cccc(C(F)(F)F)c1 [compound 1029] | 0.5 µg/mL | 8 µg/mL | 3.5 µg/mL | 8 µg/mL | –
Cc1ccn2cc(-c3ccccn3)nc2c1 [compound 1030] | 4.6 µg/mL | > 32 µg/mL and 32 µg/mL | 13.4 µg/mL | > 32 µg/mL | –
Cc1ccn2c(CN(CC(C)C)c3cccc(C(F)(F)F)c3)c(-c3ccccn3)nc2c1 [compound 1033] | 4.3 µg/mL | > 32 µg/mL and 32 µg/mL | 14.0 µg/mL | > 32 µg/mL | –
FC(F)(F)c1ccc(-c2c(-c3ccccn3)nc3n2CCC3)cc1 [compound 1052] | 2.7 µg/mL | – | 10.5 µg/mL | – | MIC ([8]; read-out: MSSA MIC): 16 µg/mL (≈ 48.6 µM); MIC ([2]; read-out: MRSA MIC): 16 µg/mL (≈ 48.6 µM)
Fc1ccc(-c2c(-c3ccccn3)nc3n2CCC3)cc1 [compound 1053] | 2.1 µg/mL | > 32 µg/mL and 32 µg/mL | 8.9 µg/mL | > 32 µg/mL | –
c1ccc(-c2nc3n(c2-c2ccncc2)CCC3)nc1 [compound 1072] | 16.8 µg/mL | > 32 µg/mL and 32 µg/mL | 16.8 µg/mL | > 32 µg/mL | –
Fc1cc(-c2c(-c3ccccn3)nc3n2CCC3)ccn1 [compound 1073] | 8.6 µg/mL | > 32 µg/mL and 32 µg/mL | 9.0 µg/mL | > 32 µg/mL | –
Nc1ccc(-c2c(-c3ccccn3)nc3n2CCC3)cc1 [compound 1074] | 1.6 µg/mL | > 32 µg/mL and 32 µg/mL | 2.2 µg/mL | > 32 µg/mL | –
N#Cc1ccc(-c2c(-c3ccccn3)nc3n2CCC3)cn1 [compound 1075] | 18.4 µg/mL | > 32 µg/mL and 32 µg/mL | 18.4 µg/mL | > 32 µg/mL | –
COc1cc(-c2c(-c3ccccn3)nc3n2CCC3)ccc1C#N [compound 1076] | 8.8 µg/mL | > 32 µg/mL and 32 µg/mL | 20.2 µg/mL | > 32 µg/mL | –
N#Cc1ccc(-c2c(-c3ccccn3)nc3n2CCC3)cc1C(F)(F)F [compound 1077] | 22.7 µg/mL | > 32 µg/mL and 32 µg/mL | 22.7 µg/mL | > 32 µg/mL | –
